One series concerns the target T1, S1P4 (Homo sapiens, UniProt O95977).
T1 construct: expressed in transfected cells; membranes
T1 sequence (O95977 1-384): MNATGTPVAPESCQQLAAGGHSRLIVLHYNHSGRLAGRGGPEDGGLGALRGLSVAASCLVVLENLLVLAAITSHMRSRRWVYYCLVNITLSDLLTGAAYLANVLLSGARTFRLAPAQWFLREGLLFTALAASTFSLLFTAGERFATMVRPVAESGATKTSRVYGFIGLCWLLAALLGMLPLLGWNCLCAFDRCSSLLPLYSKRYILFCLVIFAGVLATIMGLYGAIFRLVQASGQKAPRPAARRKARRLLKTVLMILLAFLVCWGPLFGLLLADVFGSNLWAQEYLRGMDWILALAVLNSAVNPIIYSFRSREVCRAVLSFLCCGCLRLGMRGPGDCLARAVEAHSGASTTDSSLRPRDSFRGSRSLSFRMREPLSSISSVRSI
Put plainly: Radioligand binding assay, 33P-S1P labelled S1P4 receptor. The conditions noted are these: 33P-S1P labelled receptors. On the procedure:
(§1) HEK293 or CHO cells expressing S1P1-5, are prepared in ˜0.5×10^5 cells/well. Cells are plated into each well of a 6-well plate in 2 ml of growth media (OptiMEM, Invitrogen). Two micrograms receptor plasmid DNA is mixed in 200 ul OptiMEM, and combined with 6 ul Lipofectamine (2000-9, Invitrogen). The mixture is added drop wise to 2 ml of growth media covering the cells in each well. The cells are allowed to transfect for 8-18 hours at room temperature. The OptiMEM transfection medium is replaced with 2 ml fresh serum-containing medium an incubated for 48 hours. The cells are diluted 1:10 in selection media (OptiMEM. Invitrogen) containing 0.8 mg/ml G418 in 10 cm dishes. Colonies are allowed to form (˜1-2 weeks), and 12 colonies from each dish are independently harvested with cloning disks and placed into 24-well plates.
(§2) Cell membranes from CHO-S1P1-5 or HEK-S1P1-5 transfected cells are prepared by homogenizing the cells in an ice cold solution containing 25 mM Tris, 5 mM EDTA, 5 mM EGTA, and Complete Protease Inhibitor Cocktail, EDTA-Free (Roche #1 873 580). Cells are lysed by dounce homogenization and centrifugation at 20,000×g for 20 minutes at 4° C. Membrane pellets are resuspended in the same buffer and centrifuged again at 20,000×g for 20 minutes at 4° C. Final membrane pellet is resuspended in 20 mM HEPES, pH 7.5, 5 mM MgCl2, 1 mM CaCl2. Protein concentration is determined using the Micro BCA protein assay (Pierce #23235).
(§3) Serial dilutions of test compounds in DMSO are prepared in 96 well polypropylene plates. Using the FX robot 1:50 intermediate dilutions are made to assay buffer (20 mM HEPES, pH 7.5, 5 mM MgCl2, 1 mM CaCl2, 4 mg/ml fatty-acid free BSA). This intermediate is further diluted 1:10 to the final assay reaction. Final DMSO concentration in the reaction is 0.2%. Final reaction contains 50 pM ^33P-S1P (Perkin Elmer; Special Order), and 2.5 μg of cell membranes. The reaction is incubated at room temperature for 30 minutes and stopped by filtration through GF/B UniFilter Plates (Perkin Elmer #6005177) and washed four times with wash buffer containing 50 mM Tris pH 7.4, 0.025% Tween-20. The filter plates are dried for approximately 20 minutes in an oven at 50° C. Back seals are adhered to the filter plates and 40 μl of Microscint-20 scintillation fluid is added (Perkin Elmer #6013621). The filter plates are sealed, shaken for 30 minutes at room temperature, and counted on a Top Count (PerkinElmer).

The next series addresses T2, S1P1 (Homo sapiens, UniProt P21453).
T2 construct: expressed in transfected cells; membranes
Kind of series: Radioligand binding assay, 33P-S1P labelled S1P1 receptor. Conditions: 33P-S1P labelled receptors. On the procedure:
as §1, §2, §3

A further series deals with T3, S1P3 (Homo sapiens, UniProt Q99500).
T3 construct: expressed in transfected cells; membranes
T3 sequence (Q99500 whole entry): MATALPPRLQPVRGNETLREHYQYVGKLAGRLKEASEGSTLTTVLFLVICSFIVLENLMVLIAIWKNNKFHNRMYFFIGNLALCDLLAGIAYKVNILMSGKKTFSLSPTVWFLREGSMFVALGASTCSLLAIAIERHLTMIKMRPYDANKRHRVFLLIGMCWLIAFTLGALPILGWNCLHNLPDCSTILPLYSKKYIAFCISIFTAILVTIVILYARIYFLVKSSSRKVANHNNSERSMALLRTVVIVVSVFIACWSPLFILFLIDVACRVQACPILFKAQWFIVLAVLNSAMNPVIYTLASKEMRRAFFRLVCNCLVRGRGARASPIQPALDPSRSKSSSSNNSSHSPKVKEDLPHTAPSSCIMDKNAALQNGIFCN
Put plainly: Radioligand binding assay, 33P-S1P labelled S1P3 receptor. The conditions noted are these: 33P-S1P labelled receptors. On the procedure:
as §1, §2, §3

The next series concerns the target T4, S1P5 (Homo sapiens, UniProt Q9H228).
T4 construct: expressed in transfected cells; membranes
Kind of series: Radioligand binding assay, 33P-S1P labelled S1P5 receptor. Conditions: 33P-S1P labelled receptors. The protocol: as §1, §2
(§4) Serial dilutions of test compounds in DMSO are prepared in 96 well polypropylene plates. Using the FX robot 1:50 intermediate dilutions are made to assay buffer (20 mM HEPES, pH 7.5, 5 mM MgCl2, 1 mM CaCl2, 4 mg/ml fatty-acid free BSA). This intermediate is further diluted 1:10 to the final assay reaction. Final DMSO concentration in the reaction is 0.2%. […] The filter plates are sealed, shaken for 30 minutes at room temperature, and counted on a Top Count (PerkinElmer).

The target of a further series is T5, S1P2 (Homo sapiens, UniProt O95136).
T5 construct: expressed in transfected cells; membranes
T5 sequence (O95136 whole entry): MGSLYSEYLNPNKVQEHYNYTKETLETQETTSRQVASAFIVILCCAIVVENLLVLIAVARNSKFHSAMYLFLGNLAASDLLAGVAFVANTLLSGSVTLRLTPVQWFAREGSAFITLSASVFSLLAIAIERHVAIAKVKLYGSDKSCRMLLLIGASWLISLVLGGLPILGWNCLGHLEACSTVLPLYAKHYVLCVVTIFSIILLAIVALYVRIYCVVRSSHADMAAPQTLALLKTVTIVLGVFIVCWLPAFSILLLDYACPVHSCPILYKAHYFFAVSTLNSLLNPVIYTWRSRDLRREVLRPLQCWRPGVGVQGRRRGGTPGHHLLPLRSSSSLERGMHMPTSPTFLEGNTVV
Kind of series: Radioligand binding assay, 33P-S1P labelled S1P2 receptor. Conditions: 33P-S1P labelled receptors. On the procedure:
as §1, §2, §4

Series [1] in a line: Terminal half life and clearance from blood samples. Format: in vivo, CD1 mice. The conditions noted are these: CD1, mouse, oral; for clearance: read-out: Cl (ml/min/kg) (clearance). The source says: Agonium of S1P1 results in S1P1 internalization, inhibiting lymphocyte egress into circulation, and is clinically presented as lymphopenia (Chiba, Pharmacology & Therapeutics 2005; 108,308-319, 2005). The following protocol may be used to assess the potential induction of lymphopenia for the test compounds when administered as a single oral dose to CD1 mice.
A suspension of 5% Gelucire may be used as the vehicle to prepare dosing formulations and to dose vehicle control animals. Test compound is weighed and transferred to a 15 mL Falcon tube or equivalent to make stock formulations. The appropriate amount of 5% Gelucire vehicle is then added to the tube. The resulting formulation is sonicated with a probe sonicator until no obvious particulate matter is apparent. About 500 mL Gelucire (Gattefosse, St-Priest, Cedex, France) is melted in a 1000 W microwave oven set for 3 minutes on high power. The appropriate amount of Gelucire is added to deionized water to form 5% (vol/vol) aqueous Gelucire.
Blood samples (˜0.6-0.8 mL) may be collected via intracardiac puncture at appropriate time points. The mice are anesthetized by carbon dioxide and euthanized via exanguination by intracardiac puncture. Blood samples are obtained and placed in tubes containing EDTA. Lymphocytes (L, %) count is measured with Abbott Cell-Dyn 3700 automated analyzer.
Samples of blood were taken to determine terminal half life (T½) and clearance of the compounds, using well accepted methods for such assays.

Where a name gives a salt, the structure may show the parent alone.

T4 sequence (Q9H228 whole entry): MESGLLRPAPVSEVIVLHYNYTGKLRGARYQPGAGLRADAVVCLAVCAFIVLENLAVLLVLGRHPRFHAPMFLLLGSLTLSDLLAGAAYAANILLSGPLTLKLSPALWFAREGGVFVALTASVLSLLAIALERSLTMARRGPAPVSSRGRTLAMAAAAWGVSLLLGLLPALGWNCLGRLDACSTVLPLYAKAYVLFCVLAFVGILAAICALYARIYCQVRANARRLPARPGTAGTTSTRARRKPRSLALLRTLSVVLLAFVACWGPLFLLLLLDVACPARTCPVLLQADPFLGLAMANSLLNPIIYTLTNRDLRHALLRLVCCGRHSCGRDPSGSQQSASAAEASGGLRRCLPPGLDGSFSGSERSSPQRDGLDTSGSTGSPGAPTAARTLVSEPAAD
T2 sequence (P21453 whole entry): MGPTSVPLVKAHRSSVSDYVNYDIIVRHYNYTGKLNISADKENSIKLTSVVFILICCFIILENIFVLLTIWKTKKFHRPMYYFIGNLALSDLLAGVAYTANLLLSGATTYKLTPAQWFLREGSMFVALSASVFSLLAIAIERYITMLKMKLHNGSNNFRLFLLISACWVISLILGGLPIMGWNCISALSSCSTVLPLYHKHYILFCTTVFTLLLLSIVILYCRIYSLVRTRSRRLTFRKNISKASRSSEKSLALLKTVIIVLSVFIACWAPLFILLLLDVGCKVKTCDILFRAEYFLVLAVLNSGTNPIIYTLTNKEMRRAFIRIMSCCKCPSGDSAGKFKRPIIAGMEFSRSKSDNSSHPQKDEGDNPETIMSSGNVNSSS

For the molecule `CCCCCCCCCCCCC/C=C/[C@@H](O)[C@@H](N)COP(=O)(O)O` [Example S1P, sphingosine-1-phosphate, reference compound], the IC50 at S1P4 is 15 nM; at S1P3, 7.1 nM. The Ki on S1P1 came out at 0.16 nM.

Regarding `CC(C)Cc1ccc(-c2nc(-c3ccc([C@@H](C)N[C@H]4C[C@@H](C(=O)O)C4)cc3)no2)cc1` [cis-3-{[(1R)-1-{4-[5-(4-Isobutylphenyl)-1,2,4-oxadiazol-3-yl]phenyl}ethyl]amino}cyclobutanecarboxylic acid], the IC50 on S1P4 was 35 nM; on S1P5, 2.9 nM; on S1P2, over 1000 nM; on S1P3 it was over 1000 nM. Further, on S1P1, the Ki was determined as 0.29 nM. Further, the half-life in series [1] was 5.2 h. Also, in series [1], the clearance stood at 6 mL/min/kg.

Turning to `CC(C)Cc1ccc(-c2nc(-c3ccc([C@H](C)N[C@H]4C[C@@H](C(=O)O)C4)cc3)no2)cc1` [cis-3-{[(1S)-1-{4-[5-(4-isobutylphenyl)-1,2,4-oxadiazol-3-yl]phenyl}ethyl]amino}cyclobutanecarboxylic acid, hydrochloride salt], the IC50 on S1P4 is 331 nM; on S1P5, 11 nM; at S1P2 it was over 1000 nM; at S1P3 it was over 1000 nM. At S1P1, the Ki stood at 2.7 nM. This molecule also gave a half-life in series [1] of 6.7 h. In addition, the clearance in series [1] came to 5.11 mL/min/kg.

On to `CC(C)Cc1ccc(-c2nc(-c3ccc([C@@H](C)N[C@H]4C[C@H](C(=O)O)C4)cc3)no2)cc1` [trans-3-{[(1R)-1-{-4-[5-(4-Isobutylphenyl)-1-1,2,4-oxadiazol-3-yl]phenyl}ethyl]amino}cyclobutanecarboxylic acid], for which the IC50 is 438 nM on S1P4, 15 nM at S1P5, over 1000 nM on S1P2 and over 1000 nM at S1P3. This molecule also returned a Ki at S1P1 of 4.6 nM.

For orientation: IC50 means the point on the concentration scale where inhibition reaches its midpoint. A word on the Ki: it is a dissociation constant, usually derived from enzyme kinetics or from competition with a known ligand. A lower Ki goes with higher affinity. By half-life is commonly meant the time in which the quantity being followed falls by half. Higher therefore signals slow decline.

Values taken from US20100234435A1, “CYCLOALKYLAMINO ACID DERIVATIVES” (priority 2007, published 2010).
